# Source: publication PMC11926880, “Procognitive Potential of Neuroprotective Triazine 5-HT6 Receptor Antagonists Tested on Chronic Activity In Vivo in Rats: Computer-Aided Insight into the Role of Chalcogen-Differences on the Pharmacological Profile” (ACS Chemical Neuroscience, 2025)
# Read-outs that look alike come from different tables or passages of the source.
# Key:
# [1] = tested on: rats; assay: NORT after 21 day administration, discrimination index; format: in vivo, rat; details: for reversal of (+)MK-801-induced memory disturbances (DI): (+)MK-801 0.1 mg/kg
# Protocol: Standard laboratory food (LSM-B) and filtered water as well as environment enrichment were freely available. Animals were randomly divided into treatment groups using a computer-based random order generator. All of the experiments were performed by two observers unaware of the treatment applied between 9:00 and 14:00 on separate groups of animals.
# In the NOR test (NORT), rats were randomly divided into experimental groups (n = 8/group). […] All compounds were prepared immediately before administration and were injected intraperitoneally (i.p.) in a constant volume of 2 mL/kg. […] The control group received 1% Tween 80 on the same schedule.
# The test was carried out according to the method described by Ennaceur.[46] NORT was conducted in two black-painted wood boxes (60 cm × 60 cm × 60 cm). A video camera mounted above the boxes recorded all experiments. Two days before the test, the rats were placed in the empty experimental boxes for 5 min as a habituation to the test area. On the third day, the test was performed in 2 trials lasting for 3 min at one-hour intervals. First session, familiarization (T1) with two identical objects (A1 and A2) located in the opposite corners of the boxes, approximately 10 cm from the walls, and second trial, recognition (T2) with one familiar (A) and one novel object (B). Metal cans and glass jars with sand were used as the objects. The boxes were cleaned and dried after each measurement. The exploration time (E) of the objects (such as looking, licking, sniffing, or touching while sniffing) during T2 was measured, and the discrimination index (DI) was calculated according to the following formula: DI = (EB – EA)/(EA + EB).
# The normality of data distribution and the homogeneity of variance were checked using the Shapiro–Wilk’s test and Levene’s test, respectively. All behavioral results are shown as the means ± SEM.
# [2] = tested on: SH-SY5Y cells; assay: qRT-PCR of neurodegeneration-associated genes; format: cell-based, human; details: 24 h
# [3] = tested on: HepG2; design: method as in PMID 38190615, PMID 35228010; details: tested at 0.1–100 μM; cited from earlier work
# [4] = tested on: SH-SY5Y cells; details: 50 μM, 27 h; cited from earlier work
# [5] = tested on: rats; details: acute administration, cited from earlier work
# [6] = design: method as in PMID 38190615; details: serum, cited from earlier work
# [7] = 1 mg/kg i.p., cited from earlier work
# [8] = tested on: NRF2; assay: Western blot for NRF2 (total and nuclear extracts); format: cell-based, human; details: 10 μM, 24 h
# [9] = tested on: HT-22 cell line; assay: protection against Aβ1–42, cell membrane damage (ToxiLight); format: cell-based, mouse; details: 10 μM pretreatment 1 h, Aβ1–42 35 μM 16 h
# Protocol: Cells were cultured in Dulbecco’s modified Eagle’s Medium-high glucose (DMEM, GlutaMAX ThermoFisher) supplemented with 10% inactivated fetal bovine serum heat (Thermo Fisher), 100 IU/mL penicillin (Merck), and 100 μg/mL streptomycin (Merck). Cells were cultured in flasks (area 175 cm^2, Nunc) and incubated at 37 °C, 5% CO2. To measure the neuroprotective effect against Aβ1–42, cells were placed in a 96-well culture plate (5 × 10^3 cells per well, Falcon). To measure the toxicity of tested compounds, cells were placed in a 96-well culture plate (5 × 10^3 and 2 × 10^4 cells per well, Falcon).
# Stock solutions were prepared at a concentration of 10 mM for the tested compounds. A minimum of 1 mg of each tested compound was weighed and dissolved in an appropriate volume of dimethyl sulfoxide (DMSO). Serial dilutions were prepared in DMSO, and then, the diluted compounds were transferred to phosphate-buffered saline (PBS), mixed, and put into a medium with adherent cells. Before the assays, eventual precipitation or opalescence was checked. […]
# Then, 20 μL of adenylate kinase detection reagent was added. The luminescence was measured after 10 min of incubation with a plate reader, POLARstar Omega (BMG Labtech). The results are expressed as a percentage of the control (Aβ1–42), corresponding to the percentage of dead cells concerning the control sample.
# [10] = tested on: HT-22 cell line; assay: protection against Aβ1–42, ROS (CellROX); format: cell-based, mouse; details: 10 μM pretreatment 1 h, Aβ1–42 35 μM 16 h
# Protocol: Cells were cultured in Dulbecco’s modified Eagle’s Medium-high glucose (DMEM, GlutaMAX ThermoFisher) supplemented with 10% inactivated fetal bovine serum heat (Thermo Fisher), 100 IU/mL penicillin (Merck), and 100 μg/mL streptomycin (Merck). Cells were cultured in flasks (area 175 cm^2, Nunc) and incubated at 37 °C, 5% CO2. To measure the neuroprotective effect against Aβ1–42, cells were placed in a 96-well culture plate (5 × 10^3 cells per well, Falcon).
# Stock solutions were prepared at a concentration of 10 mM for the tested compounds. A minimum of 1 mg of each tested compound was weighed and dissolved in an appropriate volume of dimethyl sulfoxide (DMSO). Serial dilutions were prepared in DMSO, and then, the diluted compounds were transferred to phosphate-buffered saline (PBS), mixed, and put into a medium with adherent cells. Before the assays, eventual precipitation or opalescence was checked.
# Aβ1–42 (Merck) was initially dissolved in 1,1,1,3,3,3- hexafluor-2-propanol (Merck). […] After this time, the Aβ1–42 solution was evaporated by using nitrogen gas. Next, DMSO was added to obtain a 2 mM stock solution of β-amyloid. […]
# After the end of incubation with the tested compounds, the supernatant was removed, and cells were incubated with CellROX (5 μM) in DMEM FluoroBrite (ThermoFisher) for 1 h at 37 °C. The results are expressed as a percentage of control (Aβ1–42).
# [11] = design: method as in PMID 38190615, PMID 35228010; details: AMES test; cited from earlier work
# [12] = tested on: SH-SY5Y cells; assay: MTS assay 72 h, neurotoxic effect; format: cell-based, human; details: 10 and 50 μM
# Protocol: SHSY5Y cells were grown in DMEM supplemented by 10% FBS, L-glutamine (2 mM), and penicillin (100u/mL)/streptomycin (100 μg/mL). The cell line was tested for mycoplasma using DAPI staining and the LookOut Mycoplasma PCR Detection Kit (MP0035, Merck). The cell line was authenticated after thawing by a morphology check, cell proliferation rate evaluation, and species verification by PCR. Bacteria contamination was excluded. […] Subsequently, cells were subjected to a CellTiter 96 AQueous One Solution Cell Proliferation Assay (Promega), according to the manufacturer’s protocol. The absorbance at 490 nm was evaluated to estimate the cell number.
# [13] = design: method as in PMID 38190615, PMID 35228010; details: LC/MS after biotransformation in rLMs; cited from earlier work
# [14] = tested on: SH-SY5Y cells; assay: ROS assay (2',7'DCFH2-DA), rotenone-induced neurotoxicity; format: cell-based, human; details: ROT 32.5 μM alone, 3 h
# Protocol: The ROS measurement was assayed by 2′,7′-dichlorofluorescin diacetate (2′, 7′DCFH2-DA, Sigma, no. D6883). The protocol was previously described in detail.[10] […] The following day, all treatments were carried out with warmed HBSS containing 25 mM HEPES (hereafter referred to as HBSS), and during the operational steps, the cells were kept at 37 °C to minimize temperature stress.
compound,measurement,setting,value
"C[C@]12N[C@H](Cc3ccccc31)c1ccccc12 [(+)MK-801, reference compound]",effect on memory functions (DI),"[1]; 0.1 mg/kg i.p. once, 30 min before the test",induced deficits in memory functions
CN1CCN(c2nc(N)nc(C(C)(C)[Se]c3ccc4ccccc4c3)n2)CC1 [PPK-32],expression of beta-secretase BACE1,[2]; 10 μM,negatively regulate
same,NRF2 transcription,[2]; 10 and 50 μM,neither WA-22 nor PPK-32 were able to stimulate its transcription
same,"expression of NQO1, SOD1, and HO1",[2]; 10 and 50 μM,induce the expression
same,expression of pro-inflammatory gene NFkB,[2]; 10 and 50 μM,neither WA-22 nor PPK-32 were able to downregulate
same,hepatotoxic (statistically significant HepG2 viability decrease),[3],>100 µM
same,reduction of cell viability compared to Ctr,[4],45%
same,memory-protective action at doses as low as,"[5]; male Wistar rats, (+)MK-801",0.3 mg/kg
same,AUC0–∞,[6]; 1 mg/kg i.p.,1833.92 ng·min/mL
same,Cmax,[6]; 1.0 mg/kg i.p.,34.9 ng/mL
same,detected in rat organs up to (time after administration),[7],up to 120 min
same,Cmax,"[7]; brain, highest value 30 min after administration",54.9 ng/g
same,t1/2λz,[7]; liver,1.42 h
same,NRF2 protein amount (total extract),[8]; GAPDH loading control,protein amount was not modulated
same,NRF2 translocation from cytoplasm to nucleus,"[8]; nuclear extracts, H3 loading control",distinctly stronger than that upon WA-22 treatment
same,protection of cell integrity against membrane destruction caused by Aβ1–42,[9],slightly more potent than the thioether WA-22
same,reversal of (+)MK-801-induced memory disturbances (DI),"[1]; 1 mg/kg/day i.p., 21 days",inactive
same,reversal of (+)MK-801-induced memory disturbances (DI),"[1]; 3 mg/kg/day i.p., 21 days",significantly reversed
same,decrease of ROS induced by Aβ,[10],displayed the ability to decrease ROS
same,mutagenic,[11],no
same,neurotoxic effect (MTS),[12],no significant differences
same,"metabolic stability, % of remaining structure",[13],37%
"C=C(C)[C@H]1Cc2c(ccc3c2O[C@@H]2COc4cc(OC)c(OC)cc4[C@@H]2C3=O)O1 [ROT, Rotenone, reference compound]",ROS level (Ctr set as 100%),[14],176%
"COc1cc2c(cc1OC)C(=O)C(CC1CCN(Cc3ccccc3)CC1)C2 (stereo not drawn) [donepezil, reference compound]",active dose in NOR test (significantly reversed MK-801 memory disturbances),[5]; rat,"g Dose of a compound that in a statistically significant manner reversed memory disturbances caused by MK-801 in the novel object recognition (NOR) test in rats;[12],[13] active dose for donepezil was 1 mg/kg. mg/kg i.p"
same,influence on memory compared to vehicle-treated rats (DI),"[1]; 1 mg/kg/day i.p., 21 days, without (+)MK-801",No memory changing
same,reversal of (+)MK-801-induced memory disturbances (DI),"[1]; 1 mg/kg/day i.p., 21 days",reverse memory disturbances
same,minimal active chronic dose,"[1]; i.p., 21 days, reversal of (+)MK-801-induced memory impairments",1 mg/kg/day
